Columns and labels:
[1] = biological target: T1, HDAC3 (Homo sapiens, UniProt O15379); assay: GDF11 reporter assay in HeLa cells; type: cell-based; settings: for HDAC3 (GDF11 reporter assay) % Max Resp of CS055 at 3 μM: relative to CS055 at 3 μM; for EC50: 24 hours
T1 construct: endogenous in cells; host or cells: HeLa
Experimental: HDAC subtype selectivity inhibition assay of tested compounds was carried out by several reporter gene assays experiments. Briefly, HeLa cells were seeded in 96-well plates the day before transfection to give a confluence of 50-80%. Cells were transfected with one of reporter gene plasmid containing a promoter sequence or response element upstream of a luciferase gene construct using FuGene6 transfection reagent according to the manufacturer's instruction (Roche). The promoters or response elements including p21-promoter, gdf11-promoter, MEF-binding element (MEF2), Nur77-promoter were fused upstream to the luciferase gene reporter construct. For normalizing the transfection efficiency, a GFP expression plasmid was cotransfected. Cells were allowed to express protein for 24 hours followed by addition of individual compounds or the vehicle (DMSO). 24 hours later the cells were harvested, and the luciferase assay and GFP assay were performed using corresponding assay kits according to the manufacturer's instructions (Promega).

[2] = biological target: T2, Flt3 (Homo sapiens, UniProt P36888); assay: Flt3 kinase ELISA bioassay; type: biochemical; settings: ELISA kinase assay, 200 μM ATP
T2 construct: purchased Cell Signaling
T2 sequence (P36888 27-993): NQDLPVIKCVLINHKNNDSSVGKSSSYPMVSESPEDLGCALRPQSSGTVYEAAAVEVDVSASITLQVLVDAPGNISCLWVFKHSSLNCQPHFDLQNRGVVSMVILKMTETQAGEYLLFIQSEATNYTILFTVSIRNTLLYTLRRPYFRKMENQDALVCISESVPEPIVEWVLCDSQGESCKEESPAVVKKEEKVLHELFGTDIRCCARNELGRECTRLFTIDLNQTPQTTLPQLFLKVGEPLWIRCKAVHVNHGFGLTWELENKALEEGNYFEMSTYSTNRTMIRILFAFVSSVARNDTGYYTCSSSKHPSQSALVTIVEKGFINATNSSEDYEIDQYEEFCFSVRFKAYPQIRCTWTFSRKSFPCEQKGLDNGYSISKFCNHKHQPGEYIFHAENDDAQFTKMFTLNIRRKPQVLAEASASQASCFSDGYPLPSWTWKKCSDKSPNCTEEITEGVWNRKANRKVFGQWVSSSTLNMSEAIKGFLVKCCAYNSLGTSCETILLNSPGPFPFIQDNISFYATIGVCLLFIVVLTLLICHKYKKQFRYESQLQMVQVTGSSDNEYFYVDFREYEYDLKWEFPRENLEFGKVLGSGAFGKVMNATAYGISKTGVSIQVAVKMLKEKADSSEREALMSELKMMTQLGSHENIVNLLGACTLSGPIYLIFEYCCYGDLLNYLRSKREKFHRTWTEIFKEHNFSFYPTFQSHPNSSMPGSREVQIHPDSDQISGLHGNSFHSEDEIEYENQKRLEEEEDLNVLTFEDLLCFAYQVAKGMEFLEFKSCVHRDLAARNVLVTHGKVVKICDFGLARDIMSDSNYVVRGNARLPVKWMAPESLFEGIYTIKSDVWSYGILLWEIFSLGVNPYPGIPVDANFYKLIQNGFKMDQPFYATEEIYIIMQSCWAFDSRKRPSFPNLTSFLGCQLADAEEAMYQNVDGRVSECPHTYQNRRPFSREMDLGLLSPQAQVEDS
Experimental: This assay is used to measure in vitro kinase activity of Flt3 in an ELISA assay.
• 1. Streptavidin coated, 96-well, white plate • 2. Phospho-Tyrosine Monoclonal Antibody (P-Tyr-100) (Cell Signaling) • 3. HRP-labeled anti-mouse IgG (Upstate) • 4. HTScan™ Tyrosine Kinase Buffer (4×) • 5. DTT (1000×. 1.25 M) • 6. ATP (10 mM) • 7. KDR (Tyr996) Biotinylated Peptide Substrate (Cell Signaling) • 8. Flt3 Kinase (recombinant, human) (Cell Signaling) • 9. Wash Buffer: 1× PBS, 0.05% Tween-20 (PBS/T) • 10. Bovine Serum Albumin (BSA) • 11. Stop Buffer: 50 mM EDTA pH 8 • 12. Enhanced chemiluminescence (ECL) (Amersham) Procedure for performing the assay in 96-well plate: • 1. Add 10 μl 10 mM ATP to 1.25 ml 6 μM substrate peptide. Dilute the mixture with dH20 to 2.5 ml to make 2× ATP/substrate cocktail ([ATP]=[…], [substrate]=3 μm). • 2. Immediately transfer enzyme from −80° C. to ice. Allow enzyme to thaw on ice. • 3. Microcentrifuge briefly at 4° C. to bring liquid to the bottom of the vial. Return immediately to ice. • 4. Add 10 μl of DTT (1.25 M) to 2.5 ml of 4× HTScan™ Tyrosine Kinase Buffer (240 mM HEPES pH 7.5, 20 mM MgCl2, 20 mM MnCl2, 12 μM Na3VO4) to make DTT/Kinase buffer. • 5. Transfer 1.25 ml of DTT/Kinase buffer to enzyme tube to make 4× reaction cocktail ([enzyme]=4 ng/μL in 4× reaction cocktail). • 6. Incubate 12.5 μl of the 4× reaction cocktail with 12.5 μl/well of prediluted compound of interest (usually around 10 μM) for 5 minutes at room temperature. • 7. Add 25 μl of 2× ATP/substrate cocktail to 25 μl/well preincubated reaction cocktail/compound. Final Assay Conditions for a 50 μl Reaction: • 60 mM HEPES pH 7.5 • 5 mM MgCl2 • 5 mM MnCl2 • 3 μM Na3VO4 • 1.25 mM DTT • […] • 1.5 μM peptide • 10 units Flt3 Kinase • 8. Incubate reaction plate at room temperature for 30 minutes. • 9. Add 50 μl/well Stop Buffer (50 mM EDTA, pH 8) to stop the reaction. • 10. Transfer 50 μl of each reaction and 50 μl dH2O/well to a 96-well streptavidincoated plate and incubate at room temperature for 60 minutes. • 11. Wash three times with 200 μl/well PBS/T • 12. Dilute primary antibody, Phospho-Tyrosine Monoclonal Antibody (P-Tyr-100), 1:1000 in PBS/T with 1% BSA. Add 100 μl/well of primary antibody. • 13. Incubate at room temperature for 60 minutes. • 14. Wash three times with 200 μl/well PBS/T • 15. Dilute HRP labeled anti-mouse IgG 1:500 in PBS/T with 1% BSA. Add 100 μl/well diluted antibody. • 16. Incubate at room temperature for 30 minutes. • 17. Wash five times with 200 μl/well PBS/T. • 18. Add 100 μl/well ECL Solution. • 19. Detect luminescence with appropriate Plate Reader.

T1 sequence (O15379 whole entry): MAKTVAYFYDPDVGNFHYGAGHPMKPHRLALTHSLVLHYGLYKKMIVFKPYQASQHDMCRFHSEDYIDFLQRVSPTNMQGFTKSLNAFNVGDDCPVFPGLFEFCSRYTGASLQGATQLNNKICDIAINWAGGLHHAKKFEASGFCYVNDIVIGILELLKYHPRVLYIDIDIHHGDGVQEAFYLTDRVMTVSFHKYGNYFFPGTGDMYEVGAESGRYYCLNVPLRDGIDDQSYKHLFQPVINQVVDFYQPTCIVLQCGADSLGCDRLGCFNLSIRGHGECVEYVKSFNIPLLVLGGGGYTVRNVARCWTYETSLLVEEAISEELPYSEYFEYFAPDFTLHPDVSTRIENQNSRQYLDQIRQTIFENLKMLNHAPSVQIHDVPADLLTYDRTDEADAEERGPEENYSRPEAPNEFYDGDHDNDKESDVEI
T1 sequence (Q9Y618 whole entry partner): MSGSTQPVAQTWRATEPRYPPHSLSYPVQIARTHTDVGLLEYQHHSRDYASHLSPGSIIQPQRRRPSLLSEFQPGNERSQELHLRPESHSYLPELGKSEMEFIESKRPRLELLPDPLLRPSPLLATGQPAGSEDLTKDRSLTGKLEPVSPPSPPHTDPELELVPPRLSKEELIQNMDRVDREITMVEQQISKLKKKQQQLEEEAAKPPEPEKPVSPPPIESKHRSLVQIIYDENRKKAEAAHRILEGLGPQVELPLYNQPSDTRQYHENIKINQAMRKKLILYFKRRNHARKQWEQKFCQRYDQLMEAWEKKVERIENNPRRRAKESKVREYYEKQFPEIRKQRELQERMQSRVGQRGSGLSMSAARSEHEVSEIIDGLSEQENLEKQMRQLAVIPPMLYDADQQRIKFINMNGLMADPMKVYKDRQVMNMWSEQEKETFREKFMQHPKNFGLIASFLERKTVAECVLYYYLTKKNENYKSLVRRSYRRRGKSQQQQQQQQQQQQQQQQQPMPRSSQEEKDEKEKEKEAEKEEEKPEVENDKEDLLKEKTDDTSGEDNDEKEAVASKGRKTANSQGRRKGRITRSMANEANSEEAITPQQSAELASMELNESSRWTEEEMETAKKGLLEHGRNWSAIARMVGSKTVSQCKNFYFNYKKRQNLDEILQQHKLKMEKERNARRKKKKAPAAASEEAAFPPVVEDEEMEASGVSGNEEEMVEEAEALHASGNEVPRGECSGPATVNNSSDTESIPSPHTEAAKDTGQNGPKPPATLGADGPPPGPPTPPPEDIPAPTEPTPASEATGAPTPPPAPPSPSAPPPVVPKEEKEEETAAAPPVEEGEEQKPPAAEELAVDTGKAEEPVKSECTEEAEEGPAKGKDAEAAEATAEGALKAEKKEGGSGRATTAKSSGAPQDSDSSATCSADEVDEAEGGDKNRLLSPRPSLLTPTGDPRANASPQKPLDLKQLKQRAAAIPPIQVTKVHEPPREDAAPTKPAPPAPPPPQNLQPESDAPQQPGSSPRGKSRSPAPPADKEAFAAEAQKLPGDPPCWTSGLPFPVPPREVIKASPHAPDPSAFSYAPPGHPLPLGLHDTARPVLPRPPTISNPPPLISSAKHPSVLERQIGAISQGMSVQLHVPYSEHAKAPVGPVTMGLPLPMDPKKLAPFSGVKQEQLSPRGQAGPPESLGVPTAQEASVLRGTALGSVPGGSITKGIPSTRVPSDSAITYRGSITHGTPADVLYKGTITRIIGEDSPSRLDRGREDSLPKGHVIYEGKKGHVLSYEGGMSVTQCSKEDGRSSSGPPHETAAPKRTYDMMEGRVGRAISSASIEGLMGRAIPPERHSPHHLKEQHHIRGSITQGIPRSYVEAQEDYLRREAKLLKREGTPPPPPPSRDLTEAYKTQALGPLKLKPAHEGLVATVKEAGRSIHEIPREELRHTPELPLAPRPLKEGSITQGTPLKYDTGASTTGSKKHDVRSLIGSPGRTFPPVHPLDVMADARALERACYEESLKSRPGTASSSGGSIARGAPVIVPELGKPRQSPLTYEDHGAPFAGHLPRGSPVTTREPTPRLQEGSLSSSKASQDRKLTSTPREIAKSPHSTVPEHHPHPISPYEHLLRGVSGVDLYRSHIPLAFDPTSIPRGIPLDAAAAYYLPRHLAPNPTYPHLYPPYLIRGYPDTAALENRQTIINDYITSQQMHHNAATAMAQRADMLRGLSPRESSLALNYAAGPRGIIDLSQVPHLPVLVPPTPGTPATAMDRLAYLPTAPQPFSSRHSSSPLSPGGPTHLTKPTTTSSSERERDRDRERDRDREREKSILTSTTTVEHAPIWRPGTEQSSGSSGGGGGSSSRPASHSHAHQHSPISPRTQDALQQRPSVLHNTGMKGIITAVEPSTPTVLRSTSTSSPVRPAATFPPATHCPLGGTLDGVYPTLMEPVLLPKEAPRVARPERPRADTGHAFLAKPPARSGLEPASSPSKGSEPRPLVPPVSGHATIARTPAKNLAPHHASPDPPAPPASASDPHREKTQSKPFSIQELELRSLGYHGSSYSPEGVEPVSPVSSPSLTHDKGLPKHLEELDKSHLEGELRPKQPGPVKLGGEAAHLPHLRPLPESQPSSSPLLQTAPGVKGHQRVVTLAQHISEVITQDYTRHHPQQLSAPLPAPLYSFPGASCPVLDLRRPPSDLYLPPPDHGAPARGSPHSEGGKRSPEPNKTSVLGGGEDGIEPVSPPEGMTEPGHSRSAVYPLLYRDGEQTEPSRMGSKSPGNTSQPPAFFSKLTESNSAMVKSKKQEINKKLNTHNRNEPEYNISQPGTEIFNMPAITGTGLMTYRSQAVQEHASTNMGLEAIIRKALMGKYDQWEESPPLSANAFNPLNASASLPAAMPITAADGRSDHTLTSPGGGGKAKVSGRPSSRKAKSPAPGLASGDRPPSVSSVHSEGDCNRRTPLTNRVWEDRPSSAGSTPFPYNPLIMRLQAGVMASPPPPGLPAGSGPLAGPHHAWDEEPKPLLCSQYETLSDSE

Row | Structure (SMILES) | HDAC3 (GDF11 reporter assay) % Max Resp of CS055 at 3 μM [1] [%] | IC50 [2] [nM] | EC50 [1] [nM]
1 | Cc1[nH]c(/C=C2\C(=O)Nc3ccc(F)cc32)c(C)c1C(=O)NCCCNc1ccc(C(=O)Nc2ccc(F)cc2N)cn1 [Example 16, (Z)-N-(2-amino-4-fluorophenyl)-6-(3-(2-((5-fluoro-2-oxoindolin-3-ylidene)-methyl)-3,5-dimethyl-1H-pyrrole-4-carboxamido)propylamino)nicotinamide] | 1.8 | 623 | –
2 | Cc1[nH]c(/C=N/N=C2\C(=O)Nc3ccc(F)cc32)c(C)c1C(=O)NCCCNc1ccc(C(=O)Nc2ccccc2N)cn1 [Example 7, N-(2-aminophenyl)-6-(3-(2-(((5-fluoro-2-oxoindolin-3-ylidene)hydrazono)-methyl)-3,5-dimethyl-1H-pyrrole-4-carboxamido)propylamino)nicotinamide] | 6.3 | 451 | –
3 | Cc1[nH]c(/C=N/N=C2\C(=O)Nc3ccc(F)cc32)c(C)c1C(=O)NCCCCNc1ccc(C(=O)Nc2ccc(F)cc2N)cn1 [Example 20, N-(2-amino-4-fluorophenyl)-6-(4-(2-(((5-fluoro-2-oxoindolin-3-ylidene)-hydrazono)methyl)-3,5-dimethyl-1H-pyrrole-4-carboxamido)butylamino)nicotinamide] | 4.1 | > 1000 | –
4 | Cc1[nH]c(/C=N/N=C2\C(=O)Nc3ccc(F)cc32)c(C)c1C(=O)NCCNc1ccc(C(=O)Nc2ccccc2N)cn1 [Example 4, N-(2-aminophenyl)-6-(2-(2-(((5-fluoro-2-oxoindolin-3-ylidene)hydrazono)-methyl)-3,5-dimethyl-1H-pyrrole-4-carboxamido)ethylamino)nicotinamide] | 2.4 | 870 | –
5 | Cc1[nH]c(/C=N/N=C2\C(=O)Nc3ccc(F)cc32)c(C)c1C(=O)NCCCCNc1ccc(C(=O)Nc2ccccc2N)cn1 [Example 10, N-(2-aminophenyl)-6-(4-(2-(((5-fluoro-2-oxoindolin-3-ylidene)hydrazono)-methyl)-3,5-dimethyl-1H-pyrrole-4-carboxamido)butylamino)nicotinamide] | 8.3 | > 1000 | –
6 | Cc1[nH]c(/C=N/N=C2\C(=O)Nc3ccc(F)cc32)c(C)c1C(=O)NCCCNc1ccc(C(=O)Nc2ccc(F)cc2N)cn1 [Example 17, N-(2-amino-4-fluorophenyl)-6-(3-(2-(((5-fluoro-2-oxoindolin-3-ylidene)-hydrazono)methyl)-3,5-dimethyl-1H-pyrrole-4-carboxamido)propylamino)nicotinamide] | 3.8 | > 1000 | –

Now those with a lower IC50 [2], led by results:

Row | HDAC3 (GDF11 reporter assay) % Max Resp of CS055 at 3 μM [1] [%] | IC50 [2] [nM] | EC50 [1] [nM] | Structure (SMILES)
7 | 2.0 | 432 | – | Cc1[nH]c(/C=N/N=C2\C(=O)Nc3ccc(F)cc32)c(C)c1C(=O)NCCNc1ccc(C(=O)Nc2ccc(F)cc2N)cn1 [Example 14, N-(2-amino-4-fluorophenyl)-6-(2-(2-(((5-fluoro-2-oxoindolin-3-ylidene)-hydrazono)methyl)-3,5-dimethyl-1H-pyrrole-4-carboxamido)ethylamino)nicotinamide]
8 | 75.6 | 132 | 1000 | Cc1[nH]c(/C=C2\C(=O)Nc3ccc(F)cc32)c(C)c1C(=O)NCCCNc1ccc(C(=O)Nc2ccccc2N)cn1 [Example 6, (Z)-N-(2-aminophenyl)-6-(3-(2-((5-fluoro-2-oxoindolin-3-ylidene)methyl)-3,5-dimethyl-1H-pyrrole-4-carboxamido)propylamino)nicotinamide]
9 | 106.2 | 76 | 1900 | Cc1[nH]c(/C=C2\C(=O)Nc3ccc(F)cc32)c(C)c1C(=O)NCCNc1ccc(C(=O)Nc2ccccc2N)cn1 [Example 3, (Z)-N-(2-aminophenyl)-6-(2-(2-((5-fluoro-2-oxoindolin-3-ylidene)methyl)-3,5-dimethyl-1H-pyrrole-4-carboxamido)ethylamino)nicotinamide]
10 | 1.8 | 63 | – | Cc1[nH]c(/C=C2\C(=O)Nc3ccc(F)cc32)c(C)c1C(=O)NCCNc1ccc(C(=O)Nc2ccc(F)cc2N)cn1 [Example 13, (Z)-N-(2-amino-4-fluorophenyl)-6-(2-(2-((5-fluoro-2-oxoindolin-3-ylidene)-methyl)-3,5-dimethyl-1H-pyrrole-4-carboxamido)ethylamino)nicotinamide]
11 | 81.4 | 25 | 15500 | Cc1[nH]c(/C=C2\C(=O)Nc3ccc(F)cc32)c(C)c1C(=O)NCCCCNc1ccc(C(=O)Nc2ccccc2N)cn1 [Example 9, (Z)-N-(2-aminophenyl)-6-(4-(2-((5-fluoro-2-oxoindolin-3-ylidene)methyl)-3,5-dimethyl-1H-pyrrole-4-carboxamido)butylamino)nicotinamide]
12 | 2.0 | 21 | – | Cc1[nH]c(/C=C2\C(=O)Nc3ccc(F)cc32)c(C)c1C(=O)NCCCCNc1ccc(C(=O)Nc2ccc(F)cc2N)cn1 [Example 19, (Z)-N-(2-amino-4-fluorophenyl)-6-(4-(2-((5-fluoro-2-oxoindolin-3-ylidene)-methyl)-3,5-dimethyl-1H-pyrrole-4-carboxamido)butylamino)nicotinamide]

Source: US8158656B2, “2-indolinone derivatives as multi-target protein kinase inhibitors and histone deacetylase inhibitors” (Shenzhen Chipscreen Biosciences Ltd., priority 2008, dated 2012)
